Test results: patent publication US11464802B2, “3-substituted piperidine compounds for Cbl-b inhibition, and use thereof” (Nurix Therapeutics, Inc., priority 2019, dated 2022)

How the values were obtained:
Cbl-b [1] = biological target: T1, Cbl-b (Homo sapiens (Human), UniProt Q13191); assay: Cbl-b displacement assay (Cbl-b inhibition assay), Biological Example 8; format: binding; conditions: Table 8-1
Method: (§1) Candidate compounds were evaluated for their ability to bind and inhibit Cbl-b, an E3 ubiquitin-protein ligase, as evidenced by their ability to displace a fluorophore-labeled probe bound to Cbl-b.
(§2) The ability of candidate compounds to displace a known inhibitor and thereby inhibit Cbl-b activity was measured by monitoring the interaction of Cbl-b with a fluorophore-labeled probe in the presence of the candidate compound. A truncated variant of Cbl-b (UniProt number Q13191) containing residues 36-427 and an Avitag at its N-terminus was co-expressed with BirA biotin ligase and purified using a standard protocol (see Dou et al., Nature Structural and Molecular Biology 8: 982-987, 2013; Avidity LLC).
(§3) Fluorescently-labeled inhibitor probe was synthesized and tagged with BODIPY FL. Cbl-b displacement assays were performed in a 384-well plate at room temperature in a 10 μl reaction volume by pre-incubating 0.5 nM Cbl-b or 0.125 nM Cbl-b (final concentration, indicated as “High” and “Low”, respectively) in an assay buffer containing 20 mM HEPES pH 7.5, 150 mM NaCl, 0.01% Triton X-100, 0.01% BSA and 0.5 mM TCEP in the presence of a candidate compound in 1% DMSO (final concentration) for 1 hour. After incubation in the presence of the candidate compound, the plate was incubated for an additional 1 hour in the presence of an approximate EC40 binding saturation consisting of 150 nM fluorescently-labeled inhibitor probe and 2 nM Streptavidin-Terbium (Cisbio) (final concentrations). Following the 1 hour incubation, the plates were read for TR-FRET signal at 520/620 nM using an Envision plate reader (Perkin Elmer).
(§4) The resulting data for the Cbl-b activity assays were analyzed using standard methods to determine the IC50 values for the tested compounds.

Cbl-b [2] = biological target: T1, Cbl-b; assay: Cbl-b displacement assay (Cbl-b inhibition assay), Biological Example 12; format: binding; conditions: Table 12-1
Method: as §1, §2, §3, §4

[3] = test system: primary human total T-cells; assay: Primary human total T-cell activation: CD25 surface staining, Biological Example 9; format: cell-based; conditions: 48 hours, fold change over baseline; for fold induction at 0.3 µM: inhibitor 0.3 μM; for fold induction at 0.3 µM / fold induction at 3 µM: Table 9-1; for fold induction at 1 µM: inhibitor 1 μM; for fold induction at 3 µM: inhibitor 3 μM
Cbl-b [4] = biological target: T1, Cbl-b; assay: Cbl-b displacement assay (Cbl-b inhibition assay), TR-FRET probe displacement, Biological Example 1; format: binding
Outline: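 N-terminally Avitagged, biotinylated truncated Cbl-b (0.5 nM "High" or 0.125 nM "Low", final) pre-incubated 1 h at room temperature with compound (1% DMSO) in HEPES pH 7.5 buffer. Then 150 nM BODIPY FL probe (~EC40) plus 2 nM streptavidin-terbium for 1 h; TR-FRET read at 520/620 nm.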

[5] = test system: primary human total T-cells; assay: Primary human total T-cell activation: IL-2 secretion, Biological Example 2; format: cell-based; conditions: 48 hours, fold change over baseline; for fold induction at 0.3 µM: inhibitor 0.3 μM; for fold induction at 1 µM: inhibitor 1 μM; for fold induction at 3 µM: inhibitor 3 μM
[6] = test system: primary human total T-cells; assay: Primary human total T-cell activation: IL-2 secretion, Biological Example 13; format: cell-based; conditions: 48 hours, fold change over baseline; for fold induction at 0.3 µM: inhibitor 0.3 μM; for fold induction at 0.3 µM / fold induction at 3 µM: Table 13-1; for fold induction at 1 µM: inhibitor 1 μM; for fold induction at 3 µM: inhibitor 3 μM
[7] = test system: primary human total T-cells; assay: Primary human total T-cell activation: CD25 surface staining, Biological Example 13; format: cell-based; conditions: 48 hours, fold change over baseline; for fold induction at 0.3 µM: inhibitor 0.3 μM; for fold induction at 0.3 µM / fold induction at 3 µM: Table 13-1; for fold induction at 1 µM: inhibitor 1 μM; for fold induction at 3 µM: inhibitor 3 μM
[8] = test system: primary human total T-cells; assay: Primary human total T-cell activation: IL-2 secretion, Biological Example 9; format: cell-based; conditions: 48 hours, fold change over baseline; for fold induction at 0.3 µM: inhibitor 0.3 μM; for fold induction at 0.3 µM / fold induction at 3 µM: Table 9-1; for fold induction at 1 µM: inhibitor 1 μM; for fold induction at 3 µM: inhibitor 3 μM
[9] = test system: primary human total T-cells; assay: Primary human total T-cell activation: CD25 surface staining, Biological Example 2; format: cell-based; conditions: 48 hours, fold change over baseline; for fold induction at 0.3 µM: inhibitor 0.3 μM; for fold induction at 1 µM: inhibitor 1 μM; for fold induction at 3 µM: inhibitor 3 μM
[10] = 0.5 nM Cbl-b final concentration (High), read-out: Cbl-b IC50 (High)
[11] = anti-CD3/anti-CD28 co-stimulation
[12] = anti-CD3/anti-CD28 co-stimulation, Table 9-1, read-out: CD25 staining CD3/CD28 1 μM
[13] = anti-CD3 alone, Table 9-1, read-out: CD25 staining CD3 1 μM
[14] = 0.5 nM Cbl-b final concentration (High), read-out: Cbl-b activity IC50 (High)
[15] = Cbl-b concentration (High or Low) not given, read-out: IC50 values in the Cbl-b inhibition assay of Biological Example 1
[16] = anti-CD3/anti-CD28 co-stimulation, read-out: IL-2 secretion CD3/CD28 1 μM
[17] = anti-CD3 alone, read-out: IL-2 secretion CD3 1 μM
[18] = anti-CD3/anti-CD28 co-stimulation, Table 13-1, read-out: IL-2 secretion CD3/CD28 1 μM
[19] = anti-CD3 alone, Table 13-1, read-out: IL-2 secretion CD3 1 μM
[20] = anti-CD3/anti-CD28 co-stimulation, Table 13-1, read-out: CD25 staining CD3/CD28 1 μM
[21] = anti-CD3 alone, Table 13-1, read-out: CD25 staining CD3 1 μM
[22] = anti-CD3/anti-CD28 co-stimulation, Table 9-1, read-out: IL-2 secretion CD3/CD28 1 μM
[23] = anti-CD3 alone, Table 9-1, read-out: IL-2 secretion CD3 1 μM
[24] = anti-CD3/anti-CD28 co-stimulation, read-out: CD25 staining CD3/CD28 1 μM
[25] = anti-CD3 alone, read-out: CD25 staining CD3 1 μM
[26] = 0.125 nM Cbl-b final concentration (Low), read-out: Cbl-b IC50 (Low)

T1 sequence (Q13191 36-427): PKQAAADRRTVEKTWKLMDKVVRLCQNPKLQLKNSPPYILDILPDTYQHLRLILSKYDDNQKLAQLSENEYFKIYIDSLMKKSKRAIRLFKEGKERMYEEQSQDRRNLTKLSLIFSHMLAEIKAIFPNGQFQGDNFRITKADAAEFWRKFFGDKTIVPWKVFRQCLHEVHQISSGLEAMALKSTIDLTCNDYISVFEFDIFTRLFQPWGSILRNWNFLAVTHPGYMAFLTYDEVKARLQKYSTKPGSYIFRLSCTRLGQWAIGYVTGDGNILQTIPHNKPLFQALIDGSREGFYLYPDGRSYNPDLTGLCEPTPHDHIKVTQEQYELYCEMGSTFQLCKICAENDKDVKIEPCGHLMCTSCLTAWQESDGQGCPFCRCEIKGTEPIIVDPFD

SMILES | IC50 (Cbl-b [1]; [10]) | IC50 (Cbl-b [2]; [10]) | fold induction at 0.3 µM [3, 11] | fold induction at 1 µM [3, 12] | fold induction at 1 µM [3, 13] | fold induction at 3 µM ([3]; anti-CD3 alone) | fold induction at 0.3 µM [6, 11] | fold induction at 1 µM [6, 18] | fold induction at 1 µM [6, 19] | fold induction at 3 µM ([6]; anti-CD3 alone) | fold induction at 0.3 µM [7, 11] | fold induction at 1 µM [7, 20] | fold induction at 1 µM [7, 21] | fold induction at 3 µM ([7]; anti-CD3 alone) | fold induction at 0.3 µM [8, 11] | fold induction at 1 µM [8, 22] | fold induction at 1 µM [8, 23] | fold induction at 3 µM ([8]; anti-CD3 alone) | IC50 (Cbl-b [1]; [26]) | IC50 (Cbl-b [2]; [26]) | further results
C[C@H]1CCCN(Cc2cc3c(c(C(F)(F)F)c2)CN(c2cccc(C4(Cc5nncn5C)COC4)c2)C3=O)C1 [Compound 1, (S)-2-(3-(3-((4-methyl-4H-1,2,4-triazol-3-yl)methyl)oxetan-3-yl)phenyl)-6-((3-methylpiperidin-1-yl)methyl)-4-(trifluoromethyl)isoindolin-1-one] | < 1 nM | < 1 nM | > 1.39 | > 1.39 | > 1.14 | > 1.14 | > 15 | > 15 | > 0.66 | > 0.66 | > 1.39 | > 1.39 | > 1.14 | > 1.14 | > 15 | > 15 | > 0.66 | > 0.66 |  |  | IC50 (Cbl-b [4]; [14]): < 1 nM; IC50 (Cbl-b [4]; [15]): < 1 nM; fold induction at 0.3 µM [5, 11]: > 15; fold induction at 1 µM [5, 16]: > 15; fold induction at 1 µM [5, 17]: > 0.66; fold induction at 3 µM ([5]; anti-CD3 alone): > 0.66; fold induction at 0.3 µM [9, 11]: < 1.24; fold induction at 1 µM [9, 24]: < 1.24; fold induction at 1 µM [9, 25]: < 1.04; fold induction at 3 µM ([9]; anti-CD3 alone): < 1.04
C[C@@H]1C[C@H](C)CN(Cc2cc3c(c(C(F)(F)F)c2)CN(c2cccc(C4(Cc5nncn5C)COC4)c2)C3=O)C1 [Compound 2, 6-{[(3R,5S)-3,5-dimethylpiperidin-1-yl]methyl}-2-(3-{3-[(4-methyl-1,2,4-triazol-3-yl)methyl]oxetan-3-yl}phenyl)-4-(trifluoromethyl)-3H-isoindol-1-one] | < 1 nM | < 1 nM | < 1.24 | < 1.24 | 1.05 to 1.14 | 1.05 to 1.14 | 11 to 15 | 11 to 15 | 0.34 to 0.66 | > 0.66 | < 1.24 | < 1.24 | 1.05 to 1.14 | 1.05 to 1.14 | 10 to 15 | 10 to 15 | 0.34 to 0.66 | > 0.66 |  |  | IC50 (Cbl-b [4]; [14]): < 1 nM; IC50 (Cbl-b [4]; [15]): < 1 nM; fold induction at 0.3 µM [5, 11]: > 15; fold induction at 1 µM [5, 16]: > 15; fold induction at 1 µM [5, 17]: 0.34 to 0.66; fold induction at 3 µM ([5]; anti-CD3 alone): > 0.66; fold induction at 0.3 µM [9, 11]: < 1.24; fold induction at 1 µM [9, 24]: < 1.24; fold induction at 1 µM [9, 25]: 1.05 to 1.14; fold induction at 3 µM ([9]; anti-CD3 alone): 1.05 to 1.14
Cn1cnnc1CC1(c2cccc(N3Cc4c(cc(CN5CCC6(CC6)C5)cc4C(F)(F)F)C3=O)c2)COC1 [Compound 59] |  |  | 1.25 to 1.39 | > 1.39 | > 1.14 | > 1.14 | > 15 | > 15 | < 0.33 | 0.34 to 0.66 | 1.25 to 1.39 | > 1.39 | > 1.14 | > 1.14 | > 15 | > 15 | < 0.33 | 0.34 to 0.66 | 1 to 5 nM | 1 to 5 nM | 
C[C@@H](c1cc2c(c(C(F)(F)F)c1)CN(c1cccc(C3([C@@H](F)c4nncn4C)COC3)c1)C2=O)N1CCC2(CC2)C1 [Compound 60] |  |  | > 1.39 | > 1.39 | > 1.14 | > 1.14 | > 15 | > 15 | 0.34 to 0.66 | 0.34 to 0.66 | > 1.39 | > 1.39 | > 1.14 | > 1.14 | > 15 | > 15 | 0.34 to 0.66 | 0.34 to 0.66 | 1 to 5 nM | 1 to 5 nM | 
C[C@@H](c1cc2c(c(C(F)(F)F)c1)CN(c1cccc(C3(Cc4nncn4C)COC3)c1)C2=O)N1CCC(F)CC1 [Compound 61] |  |  | > 1.39 | > 1.39 | > 1.14 | > 1.14 | > 15 | > 15 | 0.34 to 0.66 | 0.34 to 0.66 | > 1.39 | > 1.39 | > 1.14 | > 1.14 | > 15 | > 15 | 0.34 to 0.66 | 0.34 to 0.66 | 1 to 5 nM | 1 to 5 nM | 
